Calls of active or inactive are those of the source. No stated cut-off is given here; in the data, actives have a measured IC50 and inactives only a lower limit.
Each molecule was assayed against Envelope glycoprotein gp160 (Human immunodeficiency virus 1, UniProt Q6QLK5) (assay: cell-free HIV fusion peptide-binding blockers – biochemical, uHTS, fluorescence dequenching, […] (AID 1986)).
Chain of Envelope glycoprotein gp160 (Q6QLK5 whole entry, the tested form may be a part): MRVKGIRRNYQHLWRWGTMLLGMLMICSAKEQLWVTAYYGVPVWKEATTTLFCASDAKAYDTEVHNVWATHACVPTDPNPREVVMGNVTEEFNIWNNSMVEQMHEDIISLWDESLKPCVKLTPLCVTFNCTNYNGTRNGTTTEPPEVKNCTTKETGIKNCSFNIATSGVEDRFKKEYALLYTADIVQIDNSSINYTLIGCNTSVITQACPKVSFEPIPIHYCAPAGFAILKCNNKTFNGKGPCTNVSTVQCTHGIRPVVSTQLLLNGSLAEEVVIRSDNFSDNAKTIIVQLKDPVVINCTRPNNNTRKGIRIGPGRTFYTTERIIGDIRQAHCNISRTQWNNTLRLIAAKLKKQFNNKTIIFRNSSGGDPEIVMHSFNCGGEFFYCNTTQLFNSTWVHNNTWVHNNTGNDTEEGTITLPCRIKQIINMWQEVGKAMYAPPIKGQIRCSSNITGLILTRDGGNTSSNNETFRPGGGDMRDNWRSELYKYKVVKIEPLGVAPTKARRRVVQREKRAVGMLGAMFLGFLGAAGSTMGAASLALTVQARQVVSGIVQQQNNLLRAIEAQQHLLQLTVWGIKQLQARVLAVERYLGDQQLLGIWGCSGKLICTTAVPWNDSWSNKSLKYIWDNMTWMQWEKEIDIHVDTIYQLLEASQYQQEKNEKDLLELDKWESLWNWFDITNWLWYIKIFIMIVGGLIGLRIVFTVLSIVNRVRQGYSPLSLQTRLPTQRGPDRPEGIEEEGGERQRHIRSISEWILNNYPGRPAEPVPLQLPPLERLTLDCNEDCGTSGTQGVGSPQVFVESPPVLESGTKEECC
For `O=C(CCN1C(=O)/C(=C\C=C\c2ccccc2)SC1=S)Nc1ccccc1C(=O)O`, the IC50 was 20.2 µM (active).
With `O=C(Nc1cc(S(=O)(=O)N2CCCCC2)ccc1Cl)c1ccccc1NS(=O)(=O)c1ccc(F)cc1` the IC50 was 13.4 µM (active).
For `O=C(O)COc1ccccc1/C=N/Nc1ccc(S(=O)(=O)Nc2ccc(Cl)cc2)cc1[N+](=O)[O-]`, the IC50 was 19.6 µM (active).
For `COc1cc(/C=C2/SC(=S)NC2=O)ccc1OS(=O)(=O)c1ccc(C)cc1`, the IC50 was 16.5 µM (active).
For `O=C(O)c1cc(-c2ccc(-c3c(-c4ccc5c(c4)OCO5)noc3-c3ccsc3)cc2)nc2ccccc12`, the IC50 was 52.2 µM (active).

Reference: ChEMBL document CHEMBL1201862, “PubChem BioAssay data set” (2004)
